Data on 9 compounds can be found in patent EP0326331B1, “Substituted quinolines and cinnolines” (Dow AgroSciences LLC, priority 1988, dated 1989).

Common to all, as to format: in vivo
Assay [1] concerns melon aphids (Aphis gossypii Glover). Nature of the assay: Mite/insect screen, MA. As to conditions: Aphis gossypii, foliar, read-out: MA RESULTS %. Summed up:
(§1)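 Percent mortality was scored after standard exposure periods, following spraying of leaves to runoff (both surfaces, 10 psi, 1 h drying) with water dilutions of compound in emulsifier-containing acetone/alcohol (50:50). Armyworms received excised treated leaves in dishes.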

The test system of assay [2] is Erysiphe graminis tritici (powdery mildew). As to the kind of experiment: Test 1 greenhouse foliar spray screen, powdery mildew on wheat. As to conditions: Blumeria graminis, foliar, Test 1, foliar spray on wheat; disease control rating at 400 ppm / 100 ppm; read-out: POWD MDEW.
Assay [3] concerns Venturia inaequalis (apple scab). As to the kind of experiment: Test 1 greenhouse foliar spray screen, apple scab on apple seedling. The conditions noted are these: Venturia inaequalis; Test 1, foliar spray on apple seedling; disease control rating at 400 ppm / 100 ppm; read-out: APPL SCAB.
For assay [4], the system named is Puccinia recondita tritici (leaf rust). Nature of the assay: Test 1 greenhouse foliar spray screen, leaf rust on wheat. The conditions noted are these: Puccinia recondita, foliar, Test 1, foliar spray on wheat; disease control rating at 400 ppm / 100 ppm.
Assay [5] has as its system southern armyworm (Spodopetra eridania Cramer). As to the kind of experiment: Mite/insect screen, SAW. The conditions noted are these: Spodoptera eridania, foliar, read-out: SAW RESULTS %. Summed up: as §1
Assay [6] relates to corn rootworm. Nature of the assay: Mite/insect screen, CRW. As to conditions: read-out: CRW RESULTS %. The method in brief: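 Corn rootworm mortality (%) was evaluated following standard exposure times. Test material was emulsified by dissolution in acetone/alcohol (1:1) containing sulfonate/nonionic emulsifier blends TOXIMUL R (23 g/L) and TOXIMUL S (13 g/L), and water-diluted to the indicated doses.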

Assay [7] deals with Botrytis cinerea (gray mold). As to the kind of experiment: Test 1 greenhouse foliar spray screen, gray mold on grape berries. As to conditions: Botrytis cinerea, foliar; Test 1, spray on grape berries; disease control rating at 400 ppm / 100 ppm.
The test system of assay [8] is Pyricularia oryzae (rice blast). Nature of the assay: whole plant or invertebrate. The conditions noted are these: for pest or weed control at 400 ppm: Pyricularia oryzae, foliar, read-out: RICE BLAST, Test 1, foliar spray on rice, disease control rating at 400 ppm / 100 ppm.
Assay [9] deals with Septoria tritici (leaf blotch). Nature of the assay: Test 1 greenhouse foliar spray screen, leaf blotch on wheat. The conditions noted are these: Zymoseptoria tritici; Test 1, foliar spray on wheat; disease control rating at 400 ppm / 100 ppm; read-out: LEAF BLOT.
For assay [10], the system named is Cercospora beticola (leaf spot). Nature of the assay: Test 1 greenhouse foliar spray screen, leaf spot on sugar beet. As to conditions: Cercospora beticola; Test 1, foliar spray on sugar beet; disease control rating at 400 ppm / 100 ppm.
Assay [11] relates to Pseudoperonospora cubensis (downy mildew). As to the kind of experiment: Test 1 greenhouse foliar spray screen, downy mildew on squash. As to conditions: for pest or weed control at 400 ppm: Pseudoperonospora cubensis, foliar, Test 1, foliar spray on squash, disease control rating at 400 ppm / 100 ppm, read-out: DOWN MDEW; for activity against downy mildew: summary statement in the description.

The subject of assay [12] is Twospotted spider mites (Tetranychus urticae Koch). Nature of the assay: Mite/insect screen, SM. The conditions noted are these: for mortality at 200 ppm / mortality at 400 ppm: Tetranychus urticae, foliar, read-out: SM RESULTS %; for activity as miticides: summary statement in the description. The method in brief: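 Read-out: percent mortality after standard exposure periods. Test solutions were water dilutions of compound dissolved in acetone/alcohol (50:50) with emulsifier blends; leaves were sprayed to runoff on both surfaces and air-dried for one hour before exposure.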

[13] abbreviates: percent mortality, rate 200 ppm, foliar spray on squash.
Where [14] appears, read: percent mortality, rate 400 ppm, foliar spray on squash.
Where [15] appears, read: percent mortality, CRW rate 12.00 ppm.
The mark [16] stands for this setting: percent mortality, CRW rate 24.00 ppm.

The structures appear in SMILES notation. Where two headings read alike, the source gives them in different places.

For `C1=C(CCNc2ccc3nccc(NCCC4=CCCCC4)c3c2)CCCC1` [Example 192, N,N'-bis[2-(1-cyclohexen-yl)ethyl]-4,6-quinolinediamine], the mortality at 200 ppm in assay [1] (setting [13]), in assay [5] (setting [13]) and in [12] (setting [13]) was 0% in each case. Moreover, the mortality at 400 ppm in assay [1] (setting [14]), in assay [5] (setting [14]) and in assay [12] (setting [14]) was 0% in each case. Besides, the pest or weed control at 400 ppm lay in the range of 0 to 19% in assay [2]; 0 to 19% in [3]; 90 to 100% in assay [4]; 0 to 19% in assay [7]; 0 to 19% in [8]; 20 to 89% in [9]. Moreover, the pest or weed control at 400 ppm in assay [10] is 0 to 19%; in [11] it was 90 to 100%. Besides, in assay [6] (setting [15]), the mortality at 12 ppm stood at 0%. Besides, in assay [6] (setting [16]), the mortality at 24 ppm worked out at 0%.

`Fc1cccc2c(OCCc3cccc(Cl)c3)ccnc12` [Example 201, 4-[2-(3-chlorophenyl)ethoxy]-8-fluoroquinoline]: the mortality at 200 ppm in assay [1] (setting [13]) was 100%; in assay [5] (setting [13]) it was 0%; in assay [12] (setting [13]), 80%. Besides, the mortality at 400 ppm in [1] (setting [14]) came out at 100%; in assay [5] (setting [14]) it was 0%; in [12] (setting [14]) it was 80%. Besides, the pest or weed control at 400 ppm in assay [2] was in the range of 90 to 100%; in [3], 20 to 89%; in [4], 90 to 100%; in assay [7], 0 to 19%; in assay [8] it was 20 to 89%; in assay [9], 90 to 100%. In addition, the pest or weed control at 400 ppm in [10] and in [11] was 90 to 100% throughout. Besides, the mortality at 12 ppm in assay [6] (setting [15]) was determined as 0%. The mortality at 24 ppm in [6] (setting [16]) amounted to 0%. Also, in [11], the “activity against downy mildew” value is given as “particularly excellent activity”. For the same compound, in assay [12], the activity as miticides result is on record as “particularly excellent activity”.

On to `Clc1ccc2c(OCCc3ccccc3)ccnc2c1` [Example 202, 7-chloro-4-(2-phenylethoxy)quinoline], for which the mortality at 200 ppm in assay [1] (setting [13]), in [5] (setting [13]) and in assay [12] (setting [13]) was 0% each time. For the same compound, the mortality at 400 ppm in assay [1] (setting [14]), in [5] (setting [14]) and in [12] (setting [14]) was 0% each time. Further, the pest or weed control at 400 ppm in [2] fell in the range of 90 to 100%; in assay [3], 0 to 19%; in assay [4], 90 to 100%; in assay [7], 0 to 19%; in [8], 20 to 89%; in [9], 20 to 89%. The values for the pest or weed control at 400 ppm in assay [10] and in assay [11] were 20 to 89% and 90 to 100%, respectively. Besides, the mortality at 12 ppm in assay [6] (setting [15]) stood at 0%. Also, the mortality at 24 ppm in assay [6] (setting [16]) stood at 0%.

Turning to `Fc1cccc2c(OCCc3cccc(C(F)(F)F)c3)ccnc12` [Example 203, 8-fluoro-4-[2-(3-(trifluoromethyl)phenyl)ethoxy]quinoline], the values for the mortality at 200 ppm in assay [1], in assay [5] and in assay [12] were 100%, 10% and 0%, respectively. Moreover, the mortality at 400 ppm worked out at 90% in assay [1], 0% in [5] and 0% in [12]. The pest or weed control at 400 ppm in [2] was in the range of 20 to 89%; in assay [3] it was 20 to 89%; in assay [4], 90 to 100%; in assay [7] it was 0 to 19%; in assay [8] it was 90 to 100%; in assay [9] it was 90 to 100%. Moreover, the results for the pest or weed control at 400 ppm in assay [10] and in assay [11] were 20 to 89% and 90 to 100%, respectively. In [6], the mortality at 12 ppm was found to be 0%. Besides, the mortality at 24 ppm in assay [6] is 0%. Also, in assay [8] (summary statement in the description), the “activity against rice blast” value is on record as “particularly excellent activity”. In [11], the “activity against downy mildew” value is “particularly excellent activity”. Further, the activity as miticides entry in [12] is on record as “particularly excellent activity”.

For `Clc1cccc2c(OCCc3ccccc3)ccnc12` [Example 207, 8-chloro-4-(2-phenylethoxy)quinoline], the mortality at 200 ppm in assay [1] (setting [13]), in [5] (setting [13]) and in [12] (setting [13]) was 0% in each case. The pest or weed control at 400 ppm in [2] lay in the range of 90 to 100%; in assay [3], 20 to 89%; in assay [4], 90 to 100%; in [7], 0 to 19%; in assay [8], 90 to 100%; in [9], 90 to 100%. Besides, the results for the pest or weed control at 400 ppm in [10] and in [11] were 20 to 89% and 90 to 100%, respectively. Also, the mortality at 12 ppm in [6] (setting [15]) was 0%.

On to `c1ccc(CCOc2ccnc3ccccc23)cc1` [Example 208, 4-(2-phenylethoxy)quinoline], for which the mortality at 200 ppm in [1] (setting [13]) was found to be 10%; in assay [5] (setting [13]) it was 0%; in assay [12] (setting [13]), 10%. The pest or weed control at 400 ppm in assay [2] was 90 to 100%; in assay [3], 0 to 19%; in [4], 90 to 100%; in assay [7], 0 to 19%; in [8] it was 90 to 100%; in assay [9], 20 to 89%. Moreover, the pest or weed control at 400 ppm in [10] lay within 20 to 89%; in assay [11], 90 to 100%. Also, the mortality at 12 ppm in [6] (setting [15]) stood at 0%.

Turning to `Clc1ccc(CCOc2ccnc3ccccc23)cc1` [Example 211, 4-[2-(4-chlorophenyl)ethoxy]quinoline], the values for the mortality at 200 ppm in [1] (setting [13]), in [5] (setting [13]) and in assay [12] (setting [13]) were 40%, 0% and 10%, respectively. Besides, the pest or weed control at 400 ppm in assay [2] is 90 to 100%; in assay [3], 0 to 19%; in assay [4], 90 to 100%; in assay [7], 0 to 19%; in assay [8], 90 to 100%; in [9] it was 90 to 100%. For the same compound, the pest or weed control at 400 ppm in assay [10] and in assay [11] was 90 to 100% throughout. In addition, the mortality at 12 ppm in assay [6] (setting [15]) was 0%.

Take `CC(Cc1ccccc1)Oc1ccnc2ccccc12` (stereo not shown) [Example 213, 4-(1-methyl-2-phenylethoxy)quinoline]: the mortality at 200 ppm in assay [1] (setting [13]), in [5] (setting [13]) and in assay [12] (setting [13]) was 0% in each case. The pest or weed control at 400 ppm in assay [2] was in the range of 20 to 89%; in assay [3] it was 20 to 89%; in assay [4] it was 90 to 100%; in assay [7], 0 to 19%; in assay [8] it was 90 to 100%; in [9], 20 to 89%. The pest or weed control at 400 ppm in assay [10] lay within 0 to 19%; in [11] it was 90 to 100%. In addition, the mortality at 12 ppm in [6] (setting [15]) stood at 0%.

Consider `CC(COc1ccnc2c(F)cccc12)c1ccccc1` (stereo not shown) [Example 220, 4-(2-phenylpropoxy)-8-fluoroquinoline], for which the mortality at 200 ppm in assay [1] (setting [13]), in assay [5] (setting [13]) and in assay [12] (setting [13]) was 0% throughout. Besides, the mortality at 400 ppm in assay [1] (setting [14]), in [5] (setting [14]) and in assay [12] (setting [14]) was 0% each time. Also, the pest or weed control at 400 ppm in assay [2] fell in the range of 90 to 100%; in assay [3] it was 20 to 89%; in assay [4] it was 90 to 100%; in assay [7], 0 to 19%; in [8], 20 to 89%; in assay [9], 0 to 19%. The pest or weed control at 400 ppm in assay [10] was in the range of 0 to 19%; in assay [11], 90 to 100%. The mortality at 12 ppm in [6] (setting [15]) was found to be 0%. The mortality at 24 ppm in assay [6] (setting [16]) came out at 0%.
